Laboratory results reported in patent publication US20040259864A1, “Substituted pyrimidinone derivatives as ligands of integrin receptors” (priority 2001, published 2004).

Molecular target: T1, integrin αvβ3 (Homo sapiens, UniProt P05106+P06756)
T1 construct: from tissue; host or cells: human placenta
Experiment: Integrin αvβ3 assay (competition with vitronectin for binding to solid-phase integrin αvβ3)
Settings: integrin αvβ3 from human placenta, ranking in words only
Description: Integrin αvβ3 antagonists were identified and assessed using a test system based on competition between the natural integrin αvβ3 ligand vitronectin and the test substance for binding to integrin αvβ3 bound to a solid phase. […]
coat microtiter plates with 250 ng/ml integrin-αvβ3 in 0.05 M NaHCO3 pH 9.2; 0.1 ml/well; […]
saturate with 1% milk powder/assay buffer; 0.3 ml/well; 0.5 h/RT wash 3× with 0.05% Tween 20/assay buffer
Test substance in 0.1% milk powder/assay buffer, 50 μl/well+0 μg/ml or 2 μg/ml human vitronectin (Boehringer Ingelheim T007) in 0.1% milk powder/assay buffer, 50 μl/well; 1 h/RT […]
1 μg/ml anti human vitronectin antibody coupled to peroxidase (Kordia SAVN-APHRP) in 0.1%: milk powder/assay buffer; 0.1 ml/well; 1 h/RT […]
0.1 ml/well peroxidase substrate […]
stop reaction with 0.1 ml/well 2 M H2SO4 […]
measure the absorption at 450 nm
Integrin αvβ3: human placenta is solubilized with Nonidet, and integrin αvβ3 is affinity-purified on a GRGDSPK matrix (elution with EDTA). Contamination by integrin αIIbβ3 and human serum albumin, as well as the detergent and EDTA, are removed by anion exchange chromatography.
Assay buffer: 50 mM tris pH 7.5; 100 mM NaCl; 1 mM CaCl2; 1 mM MgCl2; 10 ΞM MnCl2 […]
Peroxidase substrate: mix 0.1 ml of TMB solution (42 mM TMB In DMSO) and 10 ml of substrate buffer (0.1 M Na acetate pH 4.9) and then add 14.7 pi of 3% H2O2. […]

IC50 values (concentration of the ligand at which 50% of the ligand is displaced): best result
Compound: Cc1cn(CC(Cc2ccc3ccccc3c2)C(=O)O)c(=O)nc1N1CCC(Nc2nc3ccccc3[nH]2)CC1.O=C(O)C(F)(F)F (stereo not shown) [Compound I, 2-[(1-{1-[2-Carboxy-3-(2-naphthyl)propyl]-5-methyl-2-oxo-1,2-dihydropyrimidin-4-yl)-piperidin-4-yl)amino]-1H-benzimidazol-1-ium trifluoroacetate]
